Assay results reported in ChEMBL document CHEMBL4483862, “Open-source discovery of chemical leads for next-generation chemoprotective antimalarials” (2018).

Tested on: Plasmodium berghei
Experiment: Luciferase/luciferin-expressing antifolate-resistant parasites were used to infect a culture of HepG2 cells that were pre-incubated with compounds. Infected hepatocytes emit light due to the luciferase reaction. Assay results are presented as the percent inhibition of light emission compared to control. […]
Assay type: functional
Conditions: sporozoite; for IC90: read-out: LUCIFERASE INFECTION ASSAY - IC90
[1] = read-out: LUCIFERASE INFECTION ASSAY - IC50

SMILES | IC50 [1] [µM] | IC90 [µM] | other results
CCNC(=O)NC(=O)C(c1ccccc1)n1nc(C(=O)O)c2ccccc2c1=O (stereo unspecified) | > 10 | > 10 | 
Cc1ccc(C(=O)Nc2nc3ccccc3[nH]2)cc1NC(=O)c1ccco1 |  | > 10 | IC50 (PBLUC_HILL_SLOPE 2.56, PBLUC_R_SQUARED 0.483, read-out: LUCIFERASE INFECTION ASSAY - IC50): 4.68 µM
CCc1ccc(C2=NN=C(Nc3cccc(S(=O)(=O)N(C)C)c3)SC2)cc1 |  | 9.95 | IC50 (FFLUC_HILL_SLOPE 1.2, FFLUC_R_SQUARED 0.399, HEPG2TOX_HILL_SLOPE 10.6, HEPG2TOX_R_SQUARED 0.97, PBLUC_HILL_SLOPE 5.57, PBLUC_R_SQUARED 0.702, read-out: LUCIFERASE INFECTION ASSAY - IC50): 6.71 µM
COc1ccc(-c2cnc3ccc(Cc4ccccc4)nn23)cc1OC |  | 3.83 | IC50 (HEPG2TOX_HILL_SLOPE 1.09, HEPG2TOX_R_SQUARED 0.956, PBLUC_HILL_SLOPE 11.4, PBLUC_R_SQUARED 0.574, read-out: LUCIFERASE INFECTION ASSAY - IC50): 3.16 µM
Cc1ccc(NC(=O)C2(C)CCN2Cc2ccccc2Cl)cc1O (stereo unspecified) |  | > 9.57 | IC50 (PBLUC_HILL_SLOPE 11.9, PBLUC_R_SQUARED 0.388, read-out: LUCIFERASE INFECTION ASSAY - IC50): 8.78 µM
O=S(=O)(Cc1ccccc1)N1CCN(c2ncnc3sc(-c4ccccc4)cc23)CC1 | > 10 | > 10 | 
COc1ccccc1CNc1cccc2cnccc12 | > 10 | > 10 | 
COC(=O)c1ccc(C(=O)OC)c(N(C)S(C)(=O)=O)c1 | > 11 | > 11 | 
CC1CCCCC1NC(=O)c1c[nH]c2ccc(Br)cc12 (stereo unspecified) | > 10 | > 10 | 
Cc1cccc(OC2CCN(C(=O)NCc3cc[nH]n3)CC2)c1C | > 10 | > 10 | 
CCN(C(=O)CN(Cc1ccccc1)S(=O)(=O)/C=C/c1ccccc1)c1cccc2ccccc12 |  | > 10 | IC50 (HEPG2TOX_HILL_SLOPE 0.0751, HEPG2TOX_R_SQUARED 0.254, read-out: LUCIFERASE INFECTION ASSAY - IC50): > 10 µM
Cc1[nH]c2ccccc2c1/C=N/n1c(-c2ccc(Cl)cc2Cl)cs/c1=N\CC1CCCO1 (stereo unspecified) |  | 6.77 | IC50 (FFLUC_HILL_SLOPE 15.4, FFLUC_R_SQUARED 0.637, HEPG2TOX_HILL_SLOPE 0.309, HEPG2TOX_R_SQUARED 0.658, PBLUC_HILL_SLOPE 1.1, PBLUC_R_SQUARED 0.559, read-out: LUCIFERASE INFECTION ASSAY - IC50): 0.923 µM
CCCN(CCC)c1ccc(C(C2C(=O)CC(C)(C)CC2=O)C2C(=O)CC(C)(C)CC2=O)cc1 |  | > 10 | IC50 (FFLUC_HILL_SLOPE 2.34, FFLUC_R_SQUARED 0.0441, PBLUC_HILL_SLOPE 3.18, PBLUC_R_SQUARED 0.551, read-out: LUCIFERASE INFECTION ASSAY - IC50): 5.61 µM
O=C(N/N=C/c1cc(Cl)ccc1O)N/N=C/c1cc(Cl)ccc1O |  | > 8.99 | IC50 (HEPG2TOX_HILL_SLOPE 7.47, HEPG2TOX_R_SQUARED 0.53, read-out: LUCIFERASE INFECTION ASSAY - IC50): > 8.99 µM
Cc1c(C(=O)C(F)(F)F)c(-c2nn(-c3ccccc3)c(NC(=O)C(F)(F)F)c2C(=O)C(F)(F)F)c(C)n1-c1ccc(F)cc1 |  | > 10 | IC50 (FFLUC_HILL_SLOPE 13.3, FFLUC_R_SQUARED 0.772, PBLUC_HILL_SLOPE 3.36, PBLUC_R_SQUARED 0.0987, read-out: LUCIFERASE INFECTION ASSAY - IC50): 8.23 µM
Cc1cc(Nc2ccc(C(c3ccc(C(=O)O)cc3)c3ccc(Nc4cc(C)nn4-c4ccccc4)nc3Cl)c(Cl)n2)n(-c2ccccc2)n1 |  | > 10 | IC50 (PBLUC_HILL_SLOPE 2.61, PBLUC_R_SQUARED 0.324, read-out: LUCIFERASE INFECTION ASSAY - IC50): 6.2 µM
O=C(CN1CCN(C(C(=O)Nc2cc(C(F)(F)F)ccc2Cl)c2ccccc2)CC1)NC1CC1 (stereo unspecified) | 9.79 | > 10 | 
COC(=O)c1c(C)[nH]c(C(=O)C(C)Sc2nnc(Cc3cccc4ccccc34)n2C2CCCCC2)c1C (stereo unspecified) |  | > 10 | IC50 (FFLUC_HILL_SLOPE 16.1, FFLUC_R_SQUARED 0.161, read-out: LUCIFERASE INFECTION ASSAY - IC50): > 10 µM
N=C1C(=S)N(c2ccc(Cl)c(Cl)c2)C(=O)N1c1ccc(Cl)c(Cl)c1 | > 7.87 | > 7.87 | 
O=C(Nc1ccc(OC(F)(F)F)cc1)N1CCc2nc(NCc3cccc(Oc4ccccc4)c3)ncc2C1 | > 6.16 | > 6.16 | 
COc1ccc(CCNC2CCc3c(c(C(=O)N(C)C)nn3CC3CCCCC3)C2)cc1 (stereo unspecified) |  | > 7.52 | IC50 (PBLUC_HILL_SLOPE 15.6, PBLUC_R_SQUARED 0.553, read-out: LUCIFERASE INFECTION ASSAY - IC50): 7.33 µM
Cc1ccccc1S(=O)(=O)Nc1nccnc1N1CCN(S(=O)(=O)c2cccc3ccccc23)CC1 | > 6.3 | > 6.3 | 

SMILES | IC50 [1] [µM] | IC90 [µM] | other results
Cc1ccc2c(COC(=O)[C@@H]3CCCN3C(=O)c3cccs3)cc(=O)oc2c1 | > 10 | > 10 | 
O=C(c1c[nH]c2ccccc12)N1CCN(c2nsc3ccccc23)CC1 |  | 3.82 | IC50 (HEPG2TOX_HILL_SLOPE 9.85, HEPG2TOX_R_SQUARED 0.824, PBLUC_HILL_SLOPE 13.5, PBLUC_R_SQUARED 0.79, read-out: LUCIFERASE INFECTION ASSAY - IC50): 3.25 µM
O=C(NCCSCc1ccc(Cl)cc1Cl)c1cccs1 |  | 3.51 | IC50 (HEPG2TOX_HILL_SLOPE 0.0561, HEPG2TOX_R_SQUARED 0.0467, PBLUC_HILL_SLOPE 2.24, PBLUC_R_SQUARED 0.817, read-out: LUCIFERASE INFECTION ASSAY - IC50): 1.32 µM
N#C/C(=C\Nc1cc(C(F)(F)F)cc(C(F)(F)F)c1)S(=O)(=O)c1ccccc1 |  | > 7.85 | IC50 (FFLUC_HILL_SLOPE 0.883, FFLUC_R_SQUARED 0.592, HEPG2TOX_HILL_SLOPE 1.61, HEPG2TOX_R_SQUARED 0.979, PBLUC_HILL_SLOPE 2.79, PBLUC_R_SQUARED 0.181, read-out: LUCIFERASE INFECTION ASSAY - IC50): 4.35 µM
C/C(=N\NC(=O)c1ccc(Cl)cc1)c1ccccc1O |  | 4.32 | IC50 (HEPG2TOX_HILL_SLOPE 1.4, HEPG2TOX_R_SQUARED 0.87, PBLUC_HILL_SLOPE 14.3, PBLUC_R_SQUARED 0.668, read-out: LUCIFERASE INFECTION ASSAY - IC50): 3.7 µM
COc1ccc(-c2cnc3cnc(-c4ccccc4)cn23)cn1 |  | > 10.9 | IC50 (PBLUC_HILL_SLOPE 7.01, PBLUC_R_SQUARED 0.635, read-out: LUCIFERASE INFECTION ASSAY - IC50): 9.42 µM
CC(Sc1nc2scc(-c3ccccc3)c2c(=O)n1C)c1ccccc1 (stereo unspecified) |  | > 10 | IC50 (HEPG2TOX_HILL_SLOPE 0.394, HEPG2TOX_R_SQUARED 0.0907, read-out: LUCIFERASE INFECTION ASSAY - IC50): > 10 µM
CCCCCCc1ccc(-c2csc(NC(=O)CSc3nnc(C(F)(F)F)n3C)n2)cc1 | > 10 | > 10 | 
CC(C)c1ccc(-n2c(Sc3ccc(C(F)(F)F)cc3[N+](=O)[O-])nnc2-c2ccc(C(C)(C)C)cc2)cc1 |  | > 6.1 | IC50 (PBLUC_HILL_SLOPE 12.8, PBLUC_R_SQUARED 0.26, read-out: LUCIFERASE INFECTION ASSAY - IC50): 5.26 µM
Cc1nc(-c2ccc(CCNc3ncnc4sccc34)cc2)cs1 |  | > 10 | IC50 (HEPG2TOX_HILL_SLOPE 0.209, HEPG2TOX_R_SQUARED 0.388, PBLUC_HILL_SLOPE 0.293, PBLUC_R_SQUARED 0.513, read-out: LUCIFERASE INFECTION ASSAY - IC50): 0.0119 µM
C/C(=N\NC(=S)Nc1ccc(Cl)cc1)c1ccn[nH]1 |  | 4.51 | IC50 (HEPG2TOX_HILL_SLOPE 2.63, HEPG2TOX_R_SQUARED 0.844, PBLUC_HILL_SLOPE 3.05, PBLUC_R_SQUARED 0.682, read-out: LUCIFERASE INFECTION ASSAY - IC50): 2.19 µM
CCOc1ncccc1C(=O)Nc1ccc(NC(=O)C2CC2)cc1C(F)(F)F | > 10 | > 10 | 
COc1cc(-c2cnc3cnc(-c4ccccc4N(C)C)cn23)ccc1O |  | > 9.16 | IC50 (HEPG2TOX_HILL_SLOPE 8.81, HEPG2TOX_R_SQUARED 0.374, PBLUC_HILL_SLOPE 9.99, PBLUC_R_SQUARED 0.0967, read-out: LUCIFERASE INFECTION ASSAY - IC50): 7.81 µM
COc1cc(C(F)(F)F)nc2ccc(C#CCOC(=O)c3ccccc3Cl)cc12 | > 7.86 | > 7.86 | 
N#Cc1ccc(F)c(CN2CCN(Cc3nc(-c4ccc(Cl)cc4)no3)CC2)c1 | > 10 | > 10 | 
Cc1ccc(-n2ncc(Cl)c(Cl)c2=O)cc1 |  | > 12.9 | IC50 (FFLUC_HILL_SLOPE 14.5, FFLUC_R_SQUARED 0.489, HEPG2TOX_HILL_SLOPE 2.71, HEPG2TOX_R_SQUARED 0.789, PBLUC_HILL_SLOPE 3.3, PBLUC_R_SQUARED 0.431, read-out: LUCIFERASE INFECTION ASSAY - IC50): 8.02 µM
CN(C)c1cccc(-c2cnc3sc(NCc4ccccc4)nn23)c1 |  | 3.57 | IC50 (PBLUC_HILL_SLOPE 15, PBLUC_R_SQUARED 0.389, read-out: LUCIFERASE INFECTION ASSAY - IC50): 3.08 µM
CCOC(=O)c1cnn(-c2ccc(C(=O)N(Cc3ccc(F)cc3)C3CC3)cc2)c1C | > 10 | > 10 | 
CCOc1ccc2nc(NC(=O)C3Cc4ccccc4CN3S(=O)(=O)c3ccc(C)cc3)sc2c1 (stereo unspecified) | > 10 | > 10 | 
Cc1nn(Cc2ccc(F)cc2)c2sc(C(=O)NCc3nnc4ccc(C(F)(F)F)cn34)cc12 | > 10 | > 10 | 
Oc1cccc(-c2cnc3cnc(-c4ccc(Cl)cc4)cn23)c1 |  | > 10.3 | IC50 (HEPG2TOX_HILL_SLOPE 0.659, HEPG2TOX_R_SQUARED 0.949, PBLUC_HILL_SLOPE 0.784, PBLUC_R_SQUARED 0.857, read-out: LUCIFERASE INFECTION ASSAY - IC50): 1.55 µM
